# Tested on: DAF (CD55) on MCF-7 breast cancer cells
# Assay: TNF-α modulation of DAF (CD55) on MCF-7 breast cancer cells (western blot, densitometry)
# Format: cell-based
# Conditions: MCF-7 cells, different concentrations of recombinant TNF-α for 18 hours
# Procedure: Estrogen primed and unprimed MCF-7 cells were treated with different concentrations of recombinant TNF-α for 18 hours. Estrogen primed cells were treated overnight with 20 ng/ml β estradiol. DAF protein was extracted by lysis treatment of cells and quantitated, run on SDS-PAGE followed by western blot analysis using anti DAF antibody. Bands were visualized by ECL method (Amersham). DAF levels were quantitated densitometrically and expressed as densitometric units.
substance,measurement,setting,value
TNF-α,DAF (CD55) expression,"estrogenized conditions (primed overnight with 20 ng/ml β estradiol), FIG. 5",upregulated CD55 in a dose dependent manner
same,DAF (CD55) expression,nonestrogenized conditions,downregulated expression of CD55 in a dose dependent manner

# Reference: patent US20030129677A1, “Diagnostic method for screening complement regulatory protein levels” (priority 2000, published 2003)
